Source: US12134594B2, “Composition and application thereof as antitumor drug” (Guangdong Jianersheng Pharmaceutical Technology Co., Ltd., priority 2018, dated 2024)

What was measured:
HK2 cells [1] = assay: platinum content in HK2 cells by ICP-MS; format: cell-based, human
Procedure: The amount of platinum in the cells was determined by an IPC-MS assay.
Platinum concentration was 8.33 ng/10^6 cells. […] Platinum concentration in the HK2 cells dropped by 38.0% to 5.16 ng/10^6 cells as a result.

[2] = metal and platinum amount in kidney by ICP-MS; format: in vivo, mouse
Procedure: The control group was intraperitoneally (i.p.) administrated with 0.9% normal saline. […] All mice were treated for 3 weeks. The kidney was sliced, weighed and dissolved in 70% HNO3; blood plasma was diluted with 70% HNO3. The sample was heated by a 100° C. hot block until thoroughly evaporated. All solid residues were re-dissolved in 5 mL of 2% HNO3. Platinum was quantified by inductively coupled plasma mass spectrometry (ICP-MS).

[3] = blood BUN and creatinine (kidney injury markers) in 4T1 mouse model; format: in vivo; settings: 3 weeks
Procedure: The control group was intraperitoneally (i.p.) administrated with 0.9% normal saline. […] All mice were treated for 3 weeks.
An EDTA tube was used to collect whole blood for a complete blood count (CBC) test. Plasma was collected by centrifugation blood collected in a heparin-coated tube. The plasma was used to carry out tests and analyses including CBC and a blood chemical test; plasma BUN and creatinine level were markers of kidney injury.
A 4T1 breast cancer mouse model was used to evaluate the antitumor ability and protective effect of the novel compound. […] When the novel compound was used for intervention, BUN level dropped by 46% to 47.6 mg/dl.

mice = assay: acute oral lethal dose (LD50) in mice; format: in vivo, mouse
From the text: (§1) According to the technical solutions provided by the present disclosure, the disclosure has the following beneficial effects: • 1. The novel compound in the composition has a high chelating effect on the platinum-based antitumor compound and toxic heavy metals. […] For example, in a test performed in a mouse model with 4T1 breast carcinoma xenografts, the composition combined treatment could better delay tumor growth and inhibit metastasis than administrating the platinum-based antitumor compound alone. • 4. […] Co-treatment using the composition could greatly reduce systemic toxicity in mice and reduce weight loss caused by administrating the platinum-based antitumor compound alone.

LLC-PK1 cells = assay: in vitro MTT cell viability assay, LLC-PK1 cells; format: cell-based, pig
Procedure: (§2) The cells involved in this example include a human renal proximal tubular cell line HK2 ([…]2190), a pig proximal tubular cell line LLC-PK1 ([…] 101) and a mouse breast cancer cell line 4[…]2539), which were all purchased from American Type Culture Collection. LLC-PK1 cells were cultured in Dulbecco modified Eagle's medium (DMEM), HK2 cells were cultured in DMEM/F12 medium, and 4T1 cells were cultured in RPMI 1640 medium. All cell media were supplemented with 10% FBS, 100 units/ml penicillin and 100 […]. The cell lines were incubated at 37° C. in a 5% CO2 atmosphere and subcultured twice a week. 3.2 In vitro cell viability assay The HK2 cells and the LLC-PK1 cells were treated with trypsin and inoculated in a 100 μL medium in a 96-well plate at a density of 10,000 cells/well. The cells were incubated for 24 h before treatment. To examine the toxicity of the novel compound, the cells were treated with different doses of the novel compound for 24 h. […] The medium was then changed, and the cells were treated with different doses of the novel compound for 48 h. After treatment, cell viability was measured by an MTT assay. 10 μL of a 12 mM MTT (3-(4,5-dimethylthiazol-2-yl)-2,5-diphenyltetrazolium bromide) stock solution was added into each well. After incubation for 4 h at 37° C., the medium was removed; 100 μL of dimethyl sulfoxide (DMSO) was added into each well, and then the plate was incubated for 10 min at 37° C. The plate was shaken in a plate oscillator, and a plate reader (Bio-Tek) was used to measure the absorbance at 570 nm.

[4] = kidney histopathology (HE) in 4T1 mouse model; format: in vivo; settings: 3 weeks
Procedure: The control group was intraperitoneally (i.p.) administrated with 0.9% normal saline. […] All mice were treated for 3 weeks. Histopathological examination of mouse tissues: histopathological changes of the kidney were examined by a 4 μm-thick deparaffinized section stained with hematoxylin and eosin (HE). To evaluate tubular damages, dilation, necrosis, apoptosis, and cast formation of renal tubules were assessed via 10 different fields of view (Zeiss Axio imager electrofluorescence microscope) at the cortical medullary junction of the kidney.

HK2 cells [5] = assay: in vitro MTT cell viability assay, HK2 cells; format: cell-based, human
Procedure: as §2

rats = assay: acute oral lethal dose (LD50) in rats; format: in vivo, rat
From the text: as §1

[6] = after administration of cisplatin and GMDTC

## CSCC[C@@H](C(=O)[O-])N(C[C@H](O)[C@@H](O)[C@H](O)[C@H](O)CO)C(=S)[S-].[Na+].[Na+] [GMDTC, sodium (S)-2-(dithiocarboxylate ((2S,3R,4R,5R)-2,3,4,5,6-pentahydroxyhexyl)amino)-4-(methylthio)butyrate]
HK2 cells [1]; 50 μM cisplatin + 1000 μM novel compound vs cisplatin alone
  drop of platinum concentration in HK2 cells: 91.5%
HK2 cells [1]; 50 μM cisplatin co-administrated with 1000 μM novel compound, 24 h
  platinum concentration in HK2 cells: 17.2 ng/10^6 cells
HK2 cells [1]; cisplatin exposure 30 min, then 1000 μM novel compound intervention, 48 h
  platinum concentration in HK2 cells: 5.16 ng/10^6 cells
HK2 cells [1]; rescue with 1000 μM novel compound after 30 min cisplatin vs no rescue
  drop of platinum concentration in HK2 cells: 38.0%
[2]; mice, ICP-MS, compared with control mice (Table 1 and Table 2)
  effect on amount and distribution of normal (essential) metals in the body: does not affect
[3]; cisplatin + 500 mg/kg novel compound vs cisplatin alone
  drop of BUN level: 46%
[3]; mice, 5 mg/kg cisplatin twice a week + 500 mg/kg novel compound 2 h after cisplatin
  BUN level: 47.6 mg/dL
mice
  acute oral lethal dose (LD50): greater than 10,000 mg/kg
LLC-PK1 cells; 400 μM, 24 h, MTT
  impact on viability of LLC-PK1 cells compared with blank control: not significantly
LLC-PK1 cells; LLC-PK1 cells, 50 μM cisplatin + novel compound, 24 h (FIG. 3B)
  cytotoxicity on co-treatment: reduce cytotoxicity
LLC-PK1 cells; LLC-PK1 cells, 24 h, MTT, read-out: IC50 (toxicity, cell viability)
  IC50: ~8 mM
[4]; mice co-treated with cisplatin and 500 mg/kg novel compound, compared with control group
  kidney histopathology: no significant difference
HK2 cells [5]; 1000 μM, 24 h, MTT
  impact on viability of HK2 cells compared with blank control: not significantly
HK2 cells [5]; HK2 cells pretreated with 300 μM cisplatin 30 min, then GMDTC for 48 h (FIG. 4)
  cell viability: 60 % of that of the control group
HK2 cells [5]; HK2 cells, 50 μM cisplatin + increasing doses of novel compound, 24 h (FIG. 3A)
  cell viability: 80%
HK2 cells [5]; HK2 cells, 24 h, MTT, read-out: IC50 (toxicity, cell viability)
  IC50: ~8 mM
rats
  acute oral lethal dose (LD50): greater than 10,000 mg/kg

## N.N.[Cl][Pt][Cl] [cisplatin]
HK2 cells [1]; 50 μM cisplatin, 24 h
  platinum concentration in HK2 cells: 202.6 ng/10^6 cells
HK2 cells [1]; cisplatin (300 μM) exposure 30 min, removed, cultured 48 h
  platinum concentration in HK2 cells: 8.33 ng/10^6 cells
[2]; [6]
  Amount in kidney: 27Al: 3.93 µg/g
  Amount in kidney: 55Mn: 0.92 µg/g
  Amount in kidney: 65Cu: 4.13 µg/g
  Amount in kidney: 66Zn: 24.4 µg/g
  Amount in kidney: 195Pt: 9.841 µg/g
[3]; mice, 5 mg/kg cisplatin i.p. twice a week
  average BUN level: 87.9 mg/dL
[4]; mice treated with 5 mg/kg cisplatin twice a week, 5 mg/kg
  kidney histopathology: extensive necrosis and degeneration
[4]; mice treated with 5 mg/kg cisplatin twice a week, listed as Cisplatin, 5 mg/kg
  kidney histopathology: extensive necrosis and degeneration of tubule cells
